Values after ≈ are worked out from the molar mass of the structure shown. Where a SMILES comes first, the peptide text is derived from it.
settings: not given

| SMILES | logP | solubility [mM] |
| --- | --- | --- |
| O=C(O)C1CCN1CC(O)Cn1ccnc1 (stereo unspecified) | -2.02 |  |
| NC(=S)NN=Cc1ccco1 | 1.64 |  |
| Nc1ncnc2c1nc(Sc1ccc(Cl)cc1)n2C1OC2COP(=O)(O)OC2C1O (stereo unspecified) | -0.98 |  |
| CC(=O)OCN1C(=O)c2ccccc2C1=O | 1.15 |  |
| C[Si]1(C)O[Si](C)(C)O[Si](C)(C)O[Si](C)(C)O[Si](C)(C)O[Si](C)(C)O1 | 9.06 |  |
| ClC1=C(Cl)C2(Cl)C3CC=CC3C1(Cl)C2(Cl)Cl (stereo unspecified) | 5.57 |  |
| CCOc1ccc([N+](=O)[O-])cc1NC(=O)CC | 1.85 |  |
| CN1CCN(c2c(F)cc3c(=O)c(C(=O)O)cn(CCF)c3c2F)CC1 | 0.24 |  |
| CNc1ncnc2c1ncn2C1OC(CO)CC1F (stereo unspecified) | 0.27 |  |
| O=C1CCC(=O)N1c1cc(Cl)cc(Cl)c1 | 1.4 |  |
| CCCC(C)C(=O)O (stereo unspecified) | 1.8 |  |
| Nc1ccc(S(=O)(=O)O)cc1 | -2.16 |  |
| [O-][n+]1ccc(Cl)c2ccc(Cl)cc21 | 1.85 |  |
| O=[N+]([O-])c1c(Cl)ncnc1Cl | 2.29 |  |
| CC1=CC(=NNC(=N)N)C=CC1=NNC(N)=S | 1.66 |  |
| CCCC[N+](C)(CCCC)CCCC.[I-] | 0.26 |  |
| Nc1ccc(Cl)c(N)c1 | 0.85 |  |
| N#CC(C#N)=Cc1ccc(Br)o1 | 2.16 |  |
| CCCOc1ccc([N+](=O)[O-])cc1NC(C)=O | 1.6 |  |
| CCCCOCCOCCOCCCC | 1.92 |  |
| CC(C)NC1=NC(=O)C(=Cc2ccc([N+](=O)[O-])o2)S1 | 1.29 |  |
| N#Cc1cc(I)c(O)c(I)c1 | 3.43 |  |
| CC[n+]1c(-c2ccccc2)c2cc(N)ccc2c2ccc(N)cc21.[Br-] |  | 50.7 |

| SMILES | logP | solubility [mM] |
| --- | --- | --- |
| CC(C)Nc1nc(N)nc(Cl)n1 | 1.51 | 1.97 (≈ 0.369 mg/mL) |
| CCC(C(=O)Oc1ccccc1)C(C)C (stereo unspecified) | 4.2 |  |
| CC(N)CCc1ccccc1 (stereo unspecified) | 2.12 |  |
| CC1=NS(=O)(=O)c2cccnc2N1 | -0.25 |  |
| CCCCC(O)CCC (stereo unspecified) | 2.68 |  |
| O=C(OCCO)c1ccccc1 | 1.12 |  |
| CN(C)c1ncc(-c2ccncc2)cc1C#N | 2.13 |  |
| CC(CCl)OC(C)CCl (stereo unspecified) | 2.48 |  |
| CCn1ccc(=O)c(O)c1C | -0.31 |  |
| CCC1CCCCC1 | 4.56 |  |
| OC(Cn1cncn1)(c1ccc(F)cc1)c1ccccc1F (stereo unspecified) | 2.29 |  |
| CCc1ccc(C=[N+]([O-])C(C)(C)C)cc1 | 2.19 |  |
| CC(C)C(C#N)c1ccc([N+](=O)[O-])cc1 (stereo unspecified) | 2.8 |  |
| CC(=O)N[C@@H](CC(C)C)C(=O)N[C@H](C(=O)N[C@@H](CC(C)C)C(N)=O)[C@@H](C)O (Ac-Leu-Thr-Leu-NH2) | 0.24 |  |
| COc1c(Cl)ccc(Cl)c1Cl | 3.64 |  |
| COc1c(O)cc(C)c(O)c1OC | 1.05 |  |
| C=CC(=O)NCCCN(CCO)CCO | -0.6 |  |
| CCCN1C(=O)C(=Cc2ccc([N+](=O)[O-])o2)SC1=NC(C)=O | 1.17 |  |
| Nc1ncnc2c1ncn2Cc1ccccc1 | 1.7 |  |
| O=[N+]([O-])c1ccc(Cl)cc1Cl | 3.07 |  |
| COC(=O)Nc1cccc(F)c1 | 2.21 |  |
| COC(=O)[C@@H](N)Cc1ccc(O)cc1 | 0.29 |  |
| COc1ncnc2c1ncn2C1OC(COC(=O)c2ccccc2)C(O)C1OC(=O)c1ccccc1 (stereo unspecified) | 3.39 |  |

| SMILES | logP | solubility [mM] |
| --- | --- | --- |
| O=[N+]([O-])c1ccc2c(c1)Cc1cc([N+](=O)[O-])ccc1-2 | 3.35 |  |
| Clc1ccc(Nc2cc3nc4ccccc4n(-c4ccc(Cl)cc4)c-3cc2=NCCCN2CCCC2)cc1 | 7.17 |  |
| ClC1=C(Cl)C2(Cl)C(Cl)=C(Cl)C3CC1C(Cl)C32 (stereo unspecified) | 5.66 |  |
| CCCC(=NOCC)C1=C(O)CC(CC(C)SCC)CC1=O (stereo unspecified) | 4.38 |  |
| CC(=O)OCN1C(=O)c2cccc3cccc(c23)C1=O | 2.34 |  |
| CCN(CC)P(=O)(N(CC)CC)N1CCCC1 | 2.39 |  |
| CCCCCCNC(=O)CCC(NS(=O)(=O)c1ccc(C)cc1)C(=O)O (stereo unspecified) | 0.84 |  |
| Brc1cc(Br)c(Br)c(-c2c(Br)c(Br)cc(Br)c2Br)c1Br | 5.5 |  |
| Cc1cccc(C)c1C#[N+][O-] | 2.74 |  |
| CCOC(=O)CCn1nnc2ccccc21 | 1.6 |  |
| Cc1cccc(NC(=O)c2ccccc2C(=O)O)c1 |  | 3.92 (≈ 1 mg/mL) |
| CC(C)(C)C(O)C(Oc1ccc(Cl)cc1)n1cncn1 (stereo unspecified) | 2.9 |  |
| CC(=O)OCn1ncc2c(O)ncnc21 | -0.35 |  |
| O=C(OC1C2C=CC1C=C2)c1ccccc1 (stereo unspecified) | 3.03 |  |
| OCc1ccc(F)cc1 | 1.36 |  |
| Cc1ccc(C=[N+]([O-])c2ccccc2)cc1 | 2.41 |  |
| Cc1ncc(CO)c(C=O)c1O |  | 2990 (≈ 500 mg/mL) |
| CCN=c1nc(Cl)[nH]c(=NC(C)CC)[nH]1 (stereo unspecified) | 2.61 |  |
| CC1CCCC(C)C1O (stereo unspecified) | 2.1 |  |
| C[C@H](CCC(=O)O)[C@H]1CC[C@H]2[C@@H]3CC[C@@H]4C[C@H](O)CC[C@]4(C)[C@H]3C[C@H](O)[C@]12C | 3.5 |  |
| Cc1ccc(-c2ccccc2)cc1 | 4.63 |  |
| C1=C(c2ccccc2)CCNC1 | 1.99 |  |
| O=[N+]([O-])c1nc[nH]c1I | 0.28 |  |

same assay, conditions: 20 °C

| SMILES | solubility [mM] |
| --- | --- |
| CCCC(C)C(=O)O (stereo unspecified) | 129 (≈ 15 mg/mL) |
| CCc1cccc(C)c1N(C(=O)CCl)C(C)COC (stereo unspecified) | 1.87 (≈ 0.53 mg/mL) |
| CCCC(CCC)C(=O)O | 13.9 (≈ 2 mg/mL) |
| NC(=O)c1ccccc1C(N)=O | 3.66 (≈ 0.6 mg/mL) |
| CCOP(=S)(OCC)Oc1nc(Cl)n(C(C)C)n1 | 0.324 (≈ 0.102 mg/mL) |

same assay, conditions: 22 °C

| SMILES | solubility [mM] |
| --- | --- |
| CC(C)Nc1nc(Cl)nc(NC2CC2)n1 | 0.303 (≈ 0.069 mg/mL) |
| CCCCC(CC)COC(=O)CCCCC(=O)OCC(CC)CCCC (stereo unspecified) | 0.0021 (≈ 0.00078 mg/mL) |

same assay, conditions: 23 °C

| SMILES | solubility [mM] |
| --- | --- |
| C[Si]1(C)O[Si](C)(C)O[Si](C)(C)O[Si](C)(C)O[Si](C)(C)O[Si](C)(C)O1 | 1.15e-05 (≈ 5.1e-06 mg/mL) |
| Clc1ccc(Cl)c(-c2ccc(Cl)c(Cl)c2)c1 | 0.000136 (≈ 3.97e-05 mg/mL) |
| CCOP(=S)(Oc1ccc([N+](=O)[O-])cc1)c1ccccc1 (stereo unspecified) | 0.00962 (≈ 0.00311 mg/mL) |

same assay, conditions: 23.0 °C

| SMILES | log10 OH rate constant (cm³/molecule/s) |
| --- | --- |
| CCCCOCCOCCO | -10.1 |

same assay, conditions: 24.0 °C

| SMILES | log10 OH rate constant (cm³/molecule/s) |
| --- | --- |
| c1ccc2ncccc2c1 | -10.9 |

same assay, conditions: 25 °C

| SMILES | solubility [mM] |
| --- | --- |
| Nc1ccc2cc3ccccc3cc2c1 | 0.00673 (≈ 0.0013 mg/mL) |
| CCCc1ccc(O)cc1 | 9.38 (≈ 1.28 mg/mL) |
| CC(=O)OCC(=O)[C@H]1CC[C@H]2[C@@H]3CCC4=CC(=O)CC[C@]4(C)[C@H]3CC[C@]12C | 0.0234 (≈ 0.00873 mg/mL) |
| O=C(O)CBr | 12600 (≈ 1750 mg/mL) |
| Oc1cc(Cl)c(Cl)cc1Cl | 6.08 (≈ 1.2 mg/mL) |
| c1ccc2ncccc2c1 | 47.3 (≈ 6.11 mg/mL) |
| c1ccoc1 | 147 (≈ 10 mg/mL) |
| CCOC(=O)COc1ccc(Cl)cc1 | 3.8 (≈ 0.815 mg/mL) |
| O=[N+]([O-])c1ccc(F)cc1O | 8.91 (≈ 1.4 mg/mL) |
| Oc1ccc(Cl)c2cccnc12 | 0.106 (≈ 0.019 mg/mL) |
| NS(=O)(=O)c1cc2c(s1)SCCC2=O | 0.281 (≈ 0.07 mg/mL) |
| CCCCN(CC)C(=O)SCCC | 0.492 (≈ 0.1 mg/mL) |
| CC(=O)OCC(=O)[C@@]1(O)CC[C@H]2[C@@H]3CCC4=CC(=O)C=C[C@]4(C)[C@H]3[C@@H](O)C[C@@]21C | 0.0427 (≈ 0.0172 mg/mL) |
| CC(O)c1ccccc1 (stereo unspecified) | 43.8 (≈ 5.35 mg/mL) |
| CCCCCOC(=O)CC | 5.62 (≈ 0.81 mg/mL) |
| CCN(CC)c1ccccc1 | 0.938 (≈ 0.14 mg/mL) |
| Nc1cc(Cl)cc(C(=O)O)c1Cl | 3.4 (≈ 0.7 mg/mL) |
| Nc1ccc(Cl)cc1 | 30.6 (≈ 3.9 mg/mL) |
| CCCCC(C=O)CC (stereo unspecified) | 3.12 (≈ 0.4 mg/mL) |

same assay, conditions: 25.0 °C

| SMILES | log10 OH rate constant (cm³/molecule/s) |
| --- | --- |
| C1CC2CCCC2C1 (stereo unspecified) | -11 |
| O=CF | -14.4 |
| CC(C)(C)N | -10.9 |
| C1CN2CCN1CC2 | -10.7 |
| FC(F)C(F)(F)OCC(F)(F)F | -13 |
| FC(F)(F)C(F)(F)N(C(F)(F)C(F)(F)F)C(F)(F)C(F)(F)F | < -15.2 |
| FC(F)=C(F)OC(F)(F)F | -11.4 |

same assay, conditions: 27.0 °C

| SMILES | log10 OH rate constant (cm³/molecule/s) |
| --- | --- |
| Cc1ccc(O)c(O)c1 | -9.81 |
| Cc1ccc(C=O)o1 | -10.3 |

same assay, conditions: 30 °C

| SMILES | solubility [mM] |
| --- | --- |
| COc1ccccc1[N+](=O)[O-] | 11 (≈ 1.69 mg/mL) |

Reference: the OPERA property sets (Mansouri et al. 2018)
